Data published in ChEMBL document CHEMBL5620411, “Perspectives and new aspects of histone deacetylase inhibitors in the therapy of CNS diseases” (Eur J Med Chem, 2023).
One block for each compound: values may come before it.

Key:
[1] = Half life in mouse; assay type: ADME, organism-based; conditions: in vivo
[2] = test system: U-87 MG; experiment: Antiproliferative activity against human U87 cells assessed as reduction in cell viability incubated for 72 hrs by MTT assay
[3] = test system: U-87 MG; experiment: Antiproliferative activity against human U87 cells assessed as reduction in cell growth incubated for 72 hrs by MTT assay; assay type: functional, cell-based, U-87MG ATCC
[4] = Half life in mouse plasma at 1 uM by LC-MS/MS analysis; assay type: ADME, cell-free
[5] = target: T1, Histone deacetylase 1 (Homo sapiens, UniProt Q13547); experiment: Inhibition of HDAC1 (unknown origin)
[6] = test system: U-251; experiment: Antiproliferative activity against human U-251 cells assessed as reduction in cell viability incubated for 24 hrs by MTT assay; assay type: functional, cell-based; conditions: U-251, 24 h
[7] = Brain to plasma ratio in rat; assay type: ADME; conditions: read-out: BPR
[8] = target: T2, Protein deacetylase HDAC6 (Homo sapiens, UniProt Q9UBN7); experiment: Inhibition of human HDAC6
T2 sequence (Q9UBN7 whole entry): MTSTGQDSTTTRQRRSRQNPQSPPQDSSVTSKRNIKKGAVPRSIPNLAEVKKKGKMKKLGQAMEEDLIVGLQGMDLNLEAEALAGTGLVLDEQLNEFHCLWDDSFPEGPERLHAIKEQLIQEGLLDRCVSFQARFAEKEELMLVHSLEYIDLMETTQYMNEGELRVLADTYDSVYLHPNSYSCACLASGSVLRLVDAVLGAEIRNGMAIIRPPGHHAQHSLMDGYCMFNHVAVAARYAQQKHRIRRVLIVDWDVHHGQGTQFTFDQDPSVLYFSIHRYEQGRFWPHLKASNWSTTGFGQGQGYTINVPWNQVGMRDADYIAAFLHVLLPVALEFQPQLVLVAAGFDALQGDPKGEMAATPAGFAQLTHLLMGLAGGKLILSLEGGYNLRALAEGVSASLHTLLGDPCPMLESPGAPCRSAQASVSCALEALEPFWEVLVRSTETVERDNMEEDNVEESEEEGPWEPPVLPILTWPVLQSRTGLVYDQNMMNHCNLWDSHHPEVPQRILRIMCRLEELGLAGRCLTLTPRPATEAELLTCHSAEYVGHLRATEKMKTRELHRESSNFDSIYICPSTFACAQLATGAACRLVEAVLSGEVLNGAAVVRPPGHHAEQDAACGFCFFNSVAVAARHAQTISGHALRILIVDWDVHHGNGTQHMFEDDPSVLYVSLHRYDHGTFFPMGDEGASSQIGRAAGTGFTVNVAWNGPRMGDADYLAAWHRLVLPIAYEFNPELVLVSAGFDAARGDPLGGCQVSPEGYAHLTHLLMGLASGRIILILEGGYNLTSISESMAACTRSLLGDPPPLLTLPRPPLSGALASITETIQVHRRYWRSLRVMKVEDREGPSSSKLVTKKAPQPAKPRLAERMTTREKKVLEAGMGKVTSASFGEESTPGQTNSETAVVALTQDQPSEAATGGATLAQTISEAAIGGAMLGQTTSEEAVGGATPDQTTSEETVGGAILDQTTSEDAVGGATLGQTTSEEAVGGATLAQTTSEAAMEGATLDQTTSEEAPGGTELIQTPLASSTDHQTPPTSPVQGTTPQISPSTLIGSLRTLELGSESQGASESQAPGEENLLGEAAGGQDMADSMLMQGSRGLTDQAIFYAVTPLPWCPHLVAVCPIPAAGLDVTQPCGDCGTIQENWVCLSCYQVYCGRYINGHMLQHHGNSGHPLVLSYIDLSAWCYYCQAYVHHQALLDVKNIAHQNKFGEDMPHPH

[9] = target: T1, Histone deacetylase 1; experiment: Inhibition of C-terminal FLAG-tagged human recombinant HDAC1 expressed in baculovirus by HTRF method
[10] = target: Histone deacetylase 4 (Homo sapiens) (UniProt P56524); experiment: Inhibition of human recombinant HDAC4 (645 to 1057 residues) expressed in Escherichia coli
[11] = target: T3, Histone deacetylase 8 (Homo sapiens, UniProt Q9BY41); experiment: Inhibition of C-terminal FLAG-tagged full length human recombinant HDAC8 expressed in baculovirus
T3 sequence (Q9BY41 whole entry): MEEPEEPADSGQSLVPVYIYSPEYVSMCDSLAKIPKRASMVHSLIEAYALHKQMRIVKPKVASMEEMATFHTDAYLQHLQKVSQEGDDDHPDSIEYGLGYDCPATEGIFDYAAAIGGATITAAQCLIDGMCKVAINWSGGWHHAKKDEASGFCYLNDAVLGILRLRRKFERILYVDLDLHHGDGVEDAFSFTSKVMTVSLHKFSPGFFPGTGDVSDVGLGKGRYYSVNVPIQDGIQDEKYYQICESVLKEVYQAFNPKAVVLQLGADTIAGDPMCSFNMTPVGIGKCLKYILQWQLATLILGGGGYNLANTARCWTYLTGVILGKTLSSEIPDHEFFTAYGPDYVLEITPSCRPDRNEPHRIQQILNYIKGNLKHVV

[12] = target: Histone deacetylase 2 (Homo sapiens, UniProt Q92769); experiment: Inhibition of C-terminal FLAG-tagged full length human recombinant HDAC2 expressed in Sf9 cells by HTRF method
[13] = target: T2, Protein deacetylase HDAC6; experiment: Inhibition of N-terminal FLAG-tagged full length human recombinant HDAC6 expressed in baculovirus

T1 sequence (Q13547 whole entry): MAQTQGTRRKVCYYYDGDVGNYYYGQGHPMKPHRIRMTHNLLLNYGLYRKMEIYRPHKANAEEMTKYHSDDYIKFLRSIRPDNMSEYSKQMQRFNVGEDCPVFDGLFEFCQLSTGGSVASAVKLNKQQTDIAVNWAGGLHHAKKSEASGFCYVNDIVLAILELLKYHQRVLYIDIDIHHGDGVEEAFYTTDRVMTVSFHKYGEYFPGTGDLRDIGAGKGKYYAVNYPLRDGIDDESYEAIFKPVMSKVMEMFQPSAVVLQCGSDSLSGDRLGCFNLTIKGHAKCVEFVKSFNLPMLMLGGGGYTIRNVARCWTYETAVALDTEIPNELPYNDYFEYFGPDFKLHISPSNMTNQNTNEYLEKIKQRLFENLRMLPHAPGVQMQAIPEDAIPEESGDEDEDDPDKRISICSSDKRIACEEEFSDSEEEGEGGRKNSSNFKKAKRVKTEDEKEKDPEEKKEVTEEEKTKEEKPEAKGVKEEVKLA
Sequence of Histone deacetylase 2 (Q92769 whole entry): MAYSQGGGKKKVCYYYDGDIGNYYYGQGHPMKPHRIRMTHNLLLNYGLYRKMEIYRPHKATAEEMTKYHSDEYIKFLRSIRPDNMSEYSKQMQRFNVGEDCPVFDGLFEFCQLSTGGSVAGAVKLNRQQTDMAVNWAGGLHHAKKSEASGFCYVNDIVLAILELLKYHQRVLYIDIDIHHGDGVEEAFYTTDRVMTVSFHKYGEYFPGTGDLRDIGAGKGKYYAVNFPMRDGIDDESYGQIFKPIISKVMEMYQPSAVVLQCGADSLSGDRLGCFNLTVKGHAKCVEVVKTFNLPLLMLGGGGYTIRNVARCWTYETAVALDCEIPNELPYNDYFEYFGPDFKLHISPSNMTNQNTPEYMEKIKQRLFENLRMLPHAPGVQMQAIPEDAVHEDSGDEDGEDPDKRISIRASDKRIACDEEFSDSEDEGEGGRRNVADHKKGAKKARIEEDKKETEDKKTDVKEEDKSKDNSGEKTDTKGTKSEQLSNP
Sequence of Histone deacetylase 4 (Homo sapiens) (P56524 whole entry, the tested form may be a part): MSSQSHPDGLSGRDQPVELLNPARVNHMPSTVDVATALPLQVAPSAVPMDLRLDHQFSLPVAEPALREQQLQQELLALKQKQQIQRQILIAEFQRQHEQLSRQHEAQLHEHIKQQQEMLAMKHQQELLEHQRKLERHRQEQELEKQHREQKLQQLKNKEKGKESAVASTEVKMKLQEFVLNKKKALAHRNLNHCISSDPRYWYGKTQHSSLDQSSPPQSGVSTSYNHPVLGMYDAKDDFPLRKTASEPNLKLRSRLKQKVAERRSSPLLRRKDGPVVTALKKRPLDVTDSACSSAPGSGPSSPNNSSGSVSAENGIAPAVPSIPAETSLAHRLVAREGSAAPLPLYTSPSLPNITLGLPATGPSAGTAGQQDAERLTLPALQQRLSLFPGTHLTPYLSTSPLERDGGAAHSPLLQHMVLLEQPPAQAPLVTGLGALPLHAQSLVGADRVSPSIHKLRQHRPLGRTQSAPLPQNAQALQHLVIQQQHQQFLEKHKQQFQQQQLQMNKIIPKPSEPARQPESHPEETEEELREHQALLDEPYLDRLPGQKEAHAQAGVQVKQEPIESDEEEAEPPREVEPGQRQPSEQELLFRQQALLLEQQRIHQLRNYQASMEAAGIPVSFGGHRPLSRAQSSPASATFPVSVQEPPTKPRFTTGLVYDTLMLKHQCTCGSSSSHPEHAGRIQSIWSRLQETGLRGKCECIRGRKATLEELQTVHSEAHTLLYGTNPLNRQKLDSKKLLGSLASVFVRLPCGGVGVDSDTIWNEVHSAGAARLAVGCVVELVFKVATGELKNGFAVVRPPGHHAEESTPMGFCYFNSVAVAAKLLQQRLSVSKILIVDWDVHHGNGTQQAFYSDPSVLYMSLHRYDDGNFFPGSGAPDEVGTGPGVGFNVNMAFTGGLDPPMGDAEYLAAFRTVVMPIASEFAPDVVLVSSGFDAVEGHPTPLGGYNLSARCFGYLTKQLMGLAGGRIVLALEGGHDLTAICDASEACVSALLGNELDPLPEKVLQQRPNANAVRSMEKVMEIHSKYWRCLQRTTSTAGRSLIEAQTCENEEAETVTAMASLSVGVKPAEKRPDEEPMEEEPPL

IC50 [3]: 2780 nM
half-life at 1 µM [4]: 1.53 h
SMILES: COc1cc(/C=C/C(=O)CC(=O)/C=C/c2ccc(/C=C/C(=O)NO)cc2)ccc1O

IC50 [5]: 120 nM
IC50 [6]: 890 nM
SMILES: O=C(CCCCCCC(=O)Nc1cc(C(F)(F)F)ccc1Cl)NO

More lines, now with the values behind:

SMILES: COc1cc(/C=C/C(=O)CC(=O)/C=C/c2ccc(O)c(OC)c2)ccc1O [CURCUMIN]
t1/2 [1]: 0.287 h
IC50 [2]: 31900 nM

SMILES: CN1CCC2c3ccccc3N(Cc3ccc(C(=O)NO)cc3)C2C1 (centres undefined)
Kp [7]: 0.18
IC50 [8]: 15 nM

SMILES: O=C(NO)c1ccc(CN2CCCSc3ccccc32)cc1
Kp [7]: 2.3

SMILES: COc1cc(-c2nc(C(=O)NCc3ccc(C(=O)NO)cc3)cc3c2[nH]c2ccccc23)cc(OC)c1OC
IC50 [9]: 8.7 nM
IC50 [10]: > 559 nM
IC50 [11]: > 559 nM
IC50 [12]: > 559 nM
IC50 [13]: 3.8 nM
